{"source": "patent US6846670B2", "about": "“Genetically engineered herpes virus for the treatment of cardiovascular disease” (priority 2000, dated 2005)", "key": {"[1]": {"assay": "Serum Acyclovir level and serum chemistry during Acyclovir therapy", "type": "in vivo, rabbit", "source_text": "(§1) Its mechanism of action is believed to include penetration intracellularly, conversion initially to the monophosphate by viral thymidine kinases, then to the diphosphate by cellular guanylate kinase and, finally, to the triphosphate by various other cellular enzymes. Fully active Acyclovir triphosphate competes with the natural substrate, deoxyguanosine triphosphate, for a position in the DNA chain of the herpes virus. Once incorporated, it terminates DNA synthesis via (1) competitive inhibition of viral DNA polymerase, (2) incorporation into, and termination of, the growing viral DNA chain, and (3) inactivation of the viral DNA polymerase. Uninfected cells show only minimal uptake and phosphorylation of Acyclovir. The HSV strains used in this example retain tk activity and are thus highly susceptible to neutralization by Acyclovir. To test whether an established HSV-1 infection could be eradicated after completion of the desired therapeutic effect (of the recombinant HSV) in vivo, a rabbit model was used. […] Baseline serum Acyclovir, electrolyte, blood urea nitrogen, and creatinine levels were measured before initiation of Acyclovir treatment, on days 2, 5, and 10 after initiation of treatment, and at sacrifice. […]"}, "[2]": {"system": "established HSV-1 infection", "assay": "Eradication of established R849 infection with Acyclovir in rabbit vein patch", "type": "in vivo", "source_text": "as §1"}, "[3]": {"system": "human umbilical vein endothelial cells (HUVECs)", "assay": "MTT assay of HUVEC viability following viral exposure", "type": "cell-based", "protocol": "To determine the appropriate dose for vascular gene transfer, human umbilical vein endothelial cells (HUVECs) were contacted with graded concentrations of HSV-1 for 120 min and viability was assessed using a standard 72 hr MTT assay, as described below.\nHuman umbilical vein endothelial cells (HUVECs; BioWhittaker/Clonetics) were suspended in complete medium EBM-2 (BioWhittaker #CC3 156) and singlequots of EGM-2 (#CC4176) and grown to 100% confluence in P75 flasks in a 37° C. incubator with humidified 5% CO2 For the passage of cells, all reagent pack contents (HBSS, Trypsin/EDTA, TNS; BioWhittaker CC-5034) were thawed in a 37° C. water bath and exhausted media was removed and discarded. HUVECs were washed with enough HBSS to cover them, trypsin/EDTA was added, and flasks were gently agitated under an inverted microscope. […]\nA modified colorimetric assay based on the selective ability of living cells to reduce the yellow salt MTT (3-[4,5-dimethylthiozol-2-yl]-2,5 diphenyl tetrazolium bromide; Sigma Chemical Co.) to formazan was used to quantitate HUVEC viability following viral exposure. […] The formazan crystals were then dissolved in 0.1 ml DMSO (Sigma) and the absorbance measured at 515 nm using a microplate spectrophotometer (SpectraMax 340 004) interfaced with a personal computer (Apple Macintosh). This process was repeated after 72 hours and relative cell survival was calculated. […]"}, "[4]": {"system": "umbilical artery smooth muscle cells (UASMCs)", "assay": "MTT assay of UASMC viability following viral exposure and Acyclovir rescue", "type": "cell-based, human", "settings": "UASMCs infected with R849 MOI=25, even with 10 μg/ml Acyclovir", "source_text": "A modified colorimetric assay based on the selective ability of living cells to reduce the yellow salt MTT (3-[4,5-dimethylthiozol-2-yl]-2,5 diphenyl tetrazolium bromide; Sigma Chemical Co.) to formazan was used to quantitate HUVEC and UASMC viability following viral exposure and rescue with Acyclovir (Abbott Laboratories)."}}}
{"smiles": "Nc1nc2c(ncn2COCCO)c(=O)[nH]1", "note": "[Acyclovir, 12-amino-1,9-dihydro-9-[(2-hydroxy-ethoxy)methyl]-6H-purin-6-one]", "values": [{"measurement": "serum levels of Acyclovir", "setting": "[1]; during Acyclovir therapy, rabbits", "value": "9000 ± 4000", "unit": "ng/mL"}, {"measurement": "systemic toxicity by serum electrolytes, blood urea nitrogen and creatinine", "setting": "[1]; throughout the study, rabbits with R849-infected patches on Acyclovir", "value": "no significant systemic toxicity"}, {"measurement": "cells with β-galactosidase activity after Acyclovir treatment", "setting": "[2]; R849 4×10^8 pfu/ml vein patch, Acyclovir 75 mg/kg iv five days from week 1 plus oral, harvest at four weeks", "value": "< 1", "unit": "%"}, {"measurement": "patency of treated vein patches after eradication of R849 infection", "setting": "[2]; four weeks", "value": "remained widely patent"}, {"measurement": "relative 72 hr cell survival with Acyclovir", "setting": "[3]; HUVECs infected with R849 MOI=25, Acyclovir 0.25 μg/ml", "value": "45±5", "unit": "%"}, {"measurement": "relative 72 hr cell survival with Acyclovir", "setting": "[3]; HUVECs infected with R849 MOI=25, Acyclovir 0.5 μg/ml", "value": "85±9", "unit": "%"}, {"measurement": "rescue of infected cells with Acyclovir", "setting": "[4]", "value": "could not be rescued"}]}
